Data from ChEMBL document CHEMBL1201862, “PubChem BioAssay data set” (2004).
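Exposure lasted 48 hours, with cells grown in 96-well plates and compounds tested at five concentrations. GI50: concentration for 50% inhibition of growth.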 The source made the active and inactive calls. Cut-off read from the data, not from the text of the source: active = GI50 up to about 1.1 µM and inactive = higher.

Columns and labels:
Test in all cases: NCI-60 cell line screen, 48 h
MOLT-4 = tested on: MOLT-4
SK-MEL-5 = tested on: SK-MEL-5
SF-268 = tested on: SF-268
MDA-MB-231 = tested on: MDA-MB-231
U-251 = tested on: U-251
NCI-H460 = tested on: NCI-H460
OVCAR-8 = tested on: OVCAR-8
MDA-N = tested on: MDA-N
SNB-75 = tested on: SNB-75
ACHN = tested on: ACHN
MCF7 = tested on: MCF7
DU-145 = tested on: DU-145
RXF 393 = tested on: RXF 393
MDA-MB-435 = tested on: MDA-MB-435
SF-295 = tested on: SF-295
SF-539 = tested on: SF-539
UACC-257 = tested on: UACC-257
EKVX = tested on: EKVX
HCT-116 = tested on: HCT-116
A498 = tested on: A498

Measured: GI50

COC(=O)c1ccc(/C=C2\Oc3ccccc3C2=O)cc1
inactive: MOLT-4 > 100 µM | SK-MEL-5 > 100 µM | SF-268 > 100 µM | MDA-MB-231 > 100 µM | U-251 > 100 µM | NCI-H460 > 100 µM | OVCAR-8 > 100 µM | MDA-N > 100 µM | SNB-75 > 100 µM | ACHN > 100 µM | MCF7 > 100 µM | DU-145 > 100 µM | RXF 393 > 100 µM | MDA-MB-435 > 100 µM | SF-295 > 100 µM | SF-539 > 100 µM | UACC-257 > 100 µM | EKVX > 100 µM | HCT-116 > 100 µM

NNC(=S)N1CCN(C(=S)NN)CC1
inactive: MOLT-4 > 100 µM | SK-MEL-5 > 100 µM | SF-268 > 100 µM | MDA-MB-231 > 100 µM | U-251 > 100 µM | A498 4.97 µM | NCI-H460 > 100 µM | MDA-N > 100 µM | SNB-75 > 100 µM | ACHN > 100 µM | DU-145 > 100 µM | MDA-MB-435 > 100 µM | SF-295 > 100 µM | UACC-257 > 100 µM | EKVX > 100 µM | HCT-116 > 100 µM

NCC1CCCCC1.O=C(O)NCC1CCCCC1
inactive: MOLT-4 15.2 µM | SK-MEL-5 15.3 µM | SF-268 12.8 µM | MDA-MB-231 25.8 µM | U-251 7.45 µM | A498 15 µM | NCI-H460 13.4 µM | OVCAR-8 13.2 µM | MDA-N 15.9 µM | SNB-75 13.7 µM | ACHN 23.9 µM | DU-145 21.1 µM | RXF 393 19.1 µM | MDA-MB-435 22.9 µM | SF-295 19.1 µM | UACC-257 22.2 µM | EKVX 30.1 µM | HCT-116 27.6 µM

N=c1oc2ccc3ccccc3c2cc1-c1nc(O)c2ccccc2n1
inactive: MOLT-4 15.8 µM | SK-MEL-5 44.5 µM | SF-268 30.8 µM | MDA-MB-231 24.1 µM | U-251 19.2 µM | NCI-H460 32.8 µM | OVCAR-8 26.7 µM | MDA-N 46.2 µM | SNB-75 2.44 µM | ACHN 11.1 µM | MCF7 14.4 µM | DU-145 36.4 µM | RXF 393 10.6 µM | MDA-MB-435 58.3 µM | SF-295 30.2 µM | SF-539 31.2 µM | UACC-257 42.5 µM | EKVX 19.5 µM | HCT-116 24.4 µM

Nc1ccccc1N/C(=C\C(=O)C(Cl)(Cl)Cl)c1ccccc1
inactive: MOLT-4 23.3 µM | SK-MEL-5 15 µM | SF-268 24.3 µM | MDA-MB-231 15.2 µM | U-251 16.8 µM | NCI-H460 25.9 µM | OVCAR-8 30.5 µM | MDA-N 18.1 µM | SNB-75 37.8 µM | ACHN 24.1 µM | MCF7 23.7 µM | DU-145 38.8 µM | RXF 393 19.1 µM | MDA-MB-435 30.9 µM | SF-295 36.6 µM | SF-539 18.8 µM | UACC-257 23.9 µM | EKVX 15.2 µM | HCT-116 16.1 µM

CN1CCN(CCn2c3c4ccccc4ccc3c3oc(=O)c4ccccc4c32)CC1
inactive: MOLT-4 1.5 µM | SK-MEL-5 1.78 µM | SF-268 6 µM | MDA-MB-231 1.8 µM | U-251 2.49 µM | A498 5.09 µM | NCI-H460 1.99 µM | OVCAR-8 1.52 µM | MDA-N 1.56 µM | SNB-75 4.37 µM | ACHN 3.05 µM | MCF7 1.55 µM | DU-145 > 10 µM | MDA-MB-435 1.88 µM | SF-295 4.21 µM | SF-539 1.65 µM | UACC-257 1.56 µM | EKVX 12.7 µM | HCT-116 1.88 µM

O=C1/C(=C\c2ccc([N+](=O)[O-])cc2)N(S(=O)(=O)c2ccccc2)c2ncccc21
inactive: MOLT-4 3.24 µM | SK-MEL-5 16.8 µM | SF-268 23.1 µM | MDA-MB-231 16.1 µM | U-251 18.2 µM | NCI-H460 18.7 µM | OVCAR-8 20.9 µM | MDA-N 19.5 µM | SNB-75 14.5 µM | ACHN 15.9 µM | MCF7 24.7 µM | DU-145 27.5 µM | RXF 393 16.6 µM | MDA-MB-435 21.4 µM | SF-295 28.2 µM | SF-539 24.8 µM | UACC-257 21.8 µM | EKVX > 10 µM | HCT-116 18.2 µM
